According to publication PMC5658359, “A potent small-molecule inhibitor of the DCN1-UBC12 interaction that selectively blocks cullin 3 neddylation” (Nature Communications, 2017):

Assays:
[1] = target: T1, DCN3 (Homo sapiens, UniProt Q8IWE4); test: Label-free BLI assay, DCN3; format: binding; settings: concentrations up to 10 µM
T1 construct: DCN2 (residues 62–259), DCN3 (residues 86–304), DCN4 (residues 102–292) and DCN5 (residues 47–237); His6-TEV (N, cleaved yes); made in house; host or cells: Rosetta2 cells (E. coli)
T1 sequence (Q8IWE4 86-304): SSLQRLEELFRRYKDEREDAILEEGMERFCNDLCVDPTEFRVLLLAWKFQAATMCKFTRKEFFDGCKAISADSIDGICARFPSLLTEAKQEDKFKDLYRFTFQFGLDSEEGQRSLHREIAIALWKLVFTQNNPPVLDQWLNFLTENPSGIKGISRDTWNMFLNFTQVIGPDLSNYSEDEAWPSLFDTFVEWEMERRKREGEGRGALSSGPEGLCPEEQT

[2] = target: T2, DCN4 (Homo sapiens, UniProt Q92564); test: Label-free BLI assay, DCN4; format: binding; settings: concentrations up to 10 µM
T2 construct: DCN2 (residues 62–259), DCN3 (residues 86–304), DCN4 (residues 102–292) and DCN5 (residues 47–237); His6-TEV (N, cleaved yes); made in house; host or cells: Rosetta2 cells (E. coli)
T2 sequence (Q92564 102-292): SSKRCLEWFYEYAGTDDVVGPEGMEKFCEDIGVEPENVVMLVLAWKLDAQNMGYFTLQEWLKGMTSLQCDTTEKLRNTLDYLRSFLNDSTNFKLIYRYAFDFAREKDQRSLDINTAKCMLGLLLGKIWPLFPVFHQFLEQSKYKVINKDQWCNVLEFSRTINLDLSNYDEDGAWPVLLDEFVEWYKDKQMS

[3] = target: T3, DCN5 (Homo sapiens, UniProt Q9BTE7); test: Label-free BLI assay, DCN5; format: binding; settings: concentrations up to 10 µM
T3 construct: DCN2 (residues 62–259), DCN3 (residues 86–304), DCN4 (residues 102–292) and DCN5 (residues 47–237); His6-TEV (N, cleaved yes); made in house; host or cells: Rosetta2 cells (E. coli)
T3 sequence (Q9BTE7 47-237): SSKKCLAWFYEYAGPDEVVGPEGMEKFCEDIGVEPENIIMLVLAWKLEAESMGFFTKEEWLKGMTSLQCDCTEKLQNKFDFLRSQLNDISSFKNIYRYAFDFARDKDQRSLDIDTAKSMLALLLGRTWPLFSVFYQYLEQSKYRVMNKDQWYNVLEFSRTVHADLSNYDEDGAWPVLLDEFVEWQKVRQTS

[4] = test system: NRF2 mRNA; test: qRT-PCR of NRF2 mRNA in THLE2 cells; format: cell-based; settings: THLE2, 10 µM
From the text: (§1) Total RNA in treated cells was isolated with the RNeasy Mini Kit (Qiagen, Germantown, MD). RNA was reverse transcribed into complementary DNA (cDNA) using high capacity RNA-to-cDNA kit (Applied Biosystems, Carlsbad, California). […] GAPDH was used as an internal reference. […] Error bars correspond to SD from three independent experiments.

[5] = target: T4, NEDD8 E1 (APP-BP1/Uba3) (Homo sapiens, UniProt Q8TBC4); test: In vitro UBC12~NEDD8 thioester forming assay; format: biochemical; settings: DI-591 at concentrations up to 100 µM
T4 construct: purchased Boston Biochem
T4 sequence (Q8TBC4 1-463): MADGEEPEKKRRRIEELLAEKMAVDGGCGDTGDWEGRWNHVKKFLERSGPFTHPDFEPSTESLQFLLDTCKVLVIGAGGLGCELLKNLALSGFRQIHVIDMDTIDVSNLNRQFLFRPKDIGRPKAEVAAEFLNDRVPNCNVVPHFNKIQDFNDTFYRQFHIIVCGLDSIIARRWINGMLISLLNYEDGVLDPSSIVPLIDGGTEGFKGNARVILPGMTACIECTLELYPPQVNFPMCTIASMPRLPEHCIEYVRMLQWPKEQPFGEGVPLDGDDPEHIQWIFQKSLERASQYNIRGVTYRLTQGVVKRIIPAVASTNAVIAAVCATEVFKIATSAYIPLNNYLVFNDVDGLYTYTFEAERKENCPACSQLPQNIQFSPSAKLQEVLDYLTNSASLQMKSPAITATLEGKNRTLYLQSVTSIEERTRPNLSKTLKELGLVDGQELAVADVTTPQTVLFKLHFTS
T4 sequence (Q13564 1-534 partner): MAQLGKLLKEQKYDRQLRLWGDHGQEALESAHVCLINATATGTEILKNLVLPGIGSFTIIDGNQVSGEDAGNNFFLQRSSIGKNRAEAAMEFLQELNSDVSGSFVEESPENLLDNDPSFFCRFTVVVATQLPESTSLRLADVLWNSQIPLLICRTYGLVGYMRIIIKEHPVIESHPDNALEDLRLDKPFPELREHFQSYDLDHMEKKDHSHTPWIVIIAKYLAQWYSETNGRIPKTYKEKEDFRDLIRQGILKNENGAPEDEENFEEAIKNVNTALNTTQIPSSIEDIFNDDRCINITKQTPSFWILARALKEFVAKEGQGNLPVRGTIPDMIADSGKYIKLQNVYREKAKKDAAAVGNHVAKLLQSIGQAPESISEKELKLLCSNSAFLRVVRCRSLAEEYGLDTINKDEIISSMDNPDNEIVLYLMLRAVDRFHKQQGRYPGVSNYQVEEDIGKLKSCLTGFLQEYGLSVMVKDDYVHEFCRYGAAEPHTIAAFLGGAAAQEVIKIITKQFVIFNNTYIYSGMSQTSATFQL
Protocol: NEDD8, NEDD8 E1 (APP-BP1/Uba3) and UBC12 proteins were purchased from Boston Biochem. NEDD8 (10 μM), NEDD8 E1 (25 nM), and UBC12 (2 μM) were incubated in Tris-HCl (pH 7.4, 50 mM), MgCl2 (5 mM), DTT (0.5 mM) and BSA (0.1 mg/ml), with a tested compound at 25 °C for 10 min. Reactions were initiated by addition of 2 mM ATP (or distilled H2O) and ran for 5 min at 25 °C. 1 M DTT (or distilled H2O) was added to the reaction mixtures which were then kept on ice for 1 min followed by addition of SDS loading buffer (without DTT). The products were separated by SDS–PAGE, visualized by Coomassie stain and quantified by ImageLab (Bio-Rad).
1 Supplementa ry Figure 3:
3 Supplementary Figure 3. In vitro U BC12~N EDD8 thio ester forming assay.N EDD8,
4 NEDD8 E1 (APP -BP 1/Uba3) and UBC12 were purchased from Boston Biochem. 10μ M
5 NEDD8, 25nM N EDD8 E1,and 2μ M UBC12 were incubated in 50mM Tris-HCl (pH 7.4), 5mM
6 M gC l 2, 0.5mM DTT, and 0.1mg/ml BSA, with indicated compounds at 25℃ for 10min.
7 Reactions were initiated by addition o f 2mM ATP (or dH2O) and w ere run for 5min at 25℃ .
8 Reaction mixtures were t hen added with 1M DTT (or dH 2O) and kept on ice for 1min followed
9 by addition of SDS Loading buffer (without DTT). The products were s eparated b y SDS-PAGE,
10 visualized by Coomassie stain and quantified using an ImageLab imager ( Bio-Rad). […]

[6] = test system: THLE2 cells and five additional cancer cell lines; test: Cell viability, WST assay, panel of 6 cell lines; format: cell-based; settings: DI-591 at concentrations up to 20 µM
[7] = test system: neddylation of cullin 3; test: Western blotting of neddylated and un-neddylated cullin 3 in cells; format: cell-based; settings: THLE2 liver cells, DI-591 at 10 µM
From the text: (§2) Treated cells were lysed by RIPA buffer supplemented with protease and phosphatase inhibitors. The expression level of indicated proteins was examined by immunoblotting analysis. GAPDH was used as the loading control.

[8] = test system: neddylation of cullin 1 and other cullins; test: Western blotting of neddylated and un-neddylated cullin 1 and other cullins in cells; format: cell-based; settings: THLE2 liver cells, up to 24 h, DI-591 10 µM, MLN4924 0.3 µM
From the text: as §2

[9] = test system: NRF2; test: Western blotting of NRF2 protein in cells; format: cell-based; settings: western blot, 24 h
From the text: as §2

[10] = test system: p21, Bim, CDT1; test: Western blotting of cullin 1 and 4A CRL substrates in cells; format: cell-based; settings: western blot, 24 h
From the text: as §2

[11] = test system: NQO1 and HO1 mRNA; test: qRT-PCR of NRF2-regulated genes in THLE2 cells; format: cell-based; settings: THLE2, 10 µM
From the text: as §1

[12] = Equilibrium aqueous solubility, small-scale shake-flask method; settings: for solubility at 24 h: thermodynamic from solid
Protocol: The equilibrium aqueous solubility of an individual compound at different pH values was determined with a small-scale shake-flask method in Eppendorf tubes. Compounds were added as powder in excess to Britton-Robinson buffer at pH 2.0 or phosphate buffer at pH 7.4 until heterogeneous suspensions were obtained. Suspensions containing excessive compound powder were sonicated in a water bath for 30 min followed by incubation at room temperature with shaking for 24 h to achieve thermodynamic equilibrium. […] Supernatants obtained were filtered using Millipore MultiScreen filter plates equipped with 0.45 µm membranes. Compound concentrations in the saturated solutions were measured by UV spectroscopy at the maximum absorption wavelengths of each compound that were pre-determined by a spectrum scan.

| binding to DCN3 (in words) [1] | binding to DCN4 (in words) [2] | binding to DCN5 (in words) [3] | inhibition of UBC12 neddylation (E1 activity), in words [5] | aqueous solubility (in words) [12] | solubility at 24 h ([12]; Britton-Robinson buffer, pH 2, aqueous buffer) [mM] | solubility at 24 h ([12]; Britton-Robinson buffer, pH 2.02, aqueous buffer) [mM] | solubility at 24 h ([12]; phosphate buffer, pH 7.4, aqueous buffer) [mM] | Structure (SMILES) | mRNA level of NRF2 (in words) [4] | cytotoxicity (in words) [6] | time to complete depletion of neddylated cullin 3 [7] [min] | effect on neddylation of cullin 1, time course (in words) [8] | NRF2 protein level (in words) [9] | protein levels of p21, Bim and CDT1 (in words) [10] | mRNA levels of NQO1 and HO1 (in words) [11] |
| --- | --- | --- | --- | --- | --- | --- | --- | --- | --- | --- | --- | --- | --- | --- | --- |
| no appreciable binding | no appreciable binding | no appreciable binding | – | – | – | – | – | CCC(=O)N[C@H](Cc1nc2ccc(C(C)C)cc2s1)C(=O)N[C@@H](CNC(=O)CCN1CCOCC1)C1CCCCC1 [DI-591DD] | no effect | – | – | – | – | – | – |
| no appreciable binding | no appreciable binding | no appreciable binding | no such effect | excellent | > 20 | > 20 | > 20 | CCC(=O)N[C@@H](Cc1nc2ccc(C(C)C)cc2s1)C(=O)N[C@H](CNC(=O)CCN1CCOCC1)C1CCCCC1 [DI-591] | no effect | no significant cytotoxicity | ≤ 5 | no effect | dose dependently increases | no or minimal effect | robustly increases |
